Results reported in patent US11447466B2, “Substituted indole compounds useful as inhibitors of TLR7/8/9” (BRISTOL-MYERS SQUIBB COMPANY, priority 2017, dated 2022).

What was measured:
Assay type in all cases: cell-based
[1] = biological target: T1, human TLR9 (Homo sapiens, UniProt Q9NR96); test: TLR9 inhibition reporter assay (HEK-Blue SEAP reporter, ODN2006 stimulation); settings: HEK-Blue cells overexpressing human TLR9, SEAP reporter, ODN2006 5 nM, 22 hour incubation
T1 construct: host or cells: HEK-Blue cells
T1 sequence (Q9NR96 26-1032): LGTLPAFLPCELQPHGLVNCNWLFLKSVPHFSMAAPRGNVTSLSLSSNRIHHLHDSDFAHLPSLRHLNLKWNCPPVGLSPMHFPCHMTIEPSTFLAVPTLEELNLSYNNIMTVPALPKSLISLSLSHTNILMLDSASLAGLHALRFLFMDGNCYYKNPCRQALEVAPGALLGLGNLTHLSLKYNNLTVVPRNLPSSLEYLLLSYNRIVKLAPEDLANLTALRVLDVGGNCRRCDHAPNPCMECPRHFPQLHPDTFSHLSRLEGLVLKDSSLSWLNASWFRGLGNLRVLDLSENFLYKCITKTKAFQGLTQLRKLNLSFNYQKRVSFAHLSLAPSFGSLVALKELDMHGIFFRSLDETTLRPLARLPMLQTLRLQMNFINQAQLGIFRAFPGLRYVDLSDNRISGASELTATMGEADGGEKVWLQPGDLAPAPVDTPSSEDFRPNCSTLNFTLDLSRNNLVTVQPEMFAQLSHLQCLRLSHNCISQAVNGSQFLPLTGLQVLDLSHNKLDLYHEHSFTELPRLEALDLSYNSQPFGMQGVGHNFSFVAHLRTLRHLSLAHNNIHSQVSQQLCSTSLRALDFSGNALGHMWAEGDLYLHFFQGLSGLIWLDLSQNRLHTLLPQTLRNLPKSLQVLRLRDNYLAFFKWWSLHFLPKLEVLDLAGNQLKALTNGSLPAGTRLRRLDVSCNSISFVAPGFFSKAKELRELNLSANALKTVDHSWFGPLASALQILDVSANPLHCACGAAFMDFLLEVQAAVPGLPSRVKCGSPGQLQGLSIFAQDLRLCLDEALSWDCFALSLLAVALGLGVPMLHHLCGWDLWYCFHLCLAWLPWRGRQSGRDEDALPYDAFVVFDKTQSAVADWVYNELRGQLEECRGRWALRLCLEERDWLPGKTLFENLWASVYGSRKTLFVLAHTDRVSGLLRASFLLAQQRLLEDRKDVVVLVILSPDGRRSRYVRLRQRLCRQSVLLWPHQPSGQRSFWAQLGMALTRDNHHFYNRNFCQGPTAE
Method in brief: (§1)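 Dose–response from 0.05 nM to 50 μM was run in HEK-Blue human TLR7, TLR8 and TLR9 reporter cells. After 30 min at room temperature with compound, ligand was added (TLR7 gardiquimod 7.5 μM; TLR8 R848 15.9 μM; TLR9 ODN2006 5 nM) and SEAP measured next day, at 22 h.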

[2] = biological target: T2, human TLR7 (Homo sapiens, UniProt Q9NYK1); test: TLR7 inhibition reporter assay (HEK-Blue SEAP reporter, gardiquimod stimulation); settings: HEK-Blue cells overexpressing human TLR7, SEAP reporter, gardiquimod 7.5 μM, 22 hour incubation
T2 construct: host or cells: HEK-Blue cells
T2 sequence (Q9NYK1 27-1049): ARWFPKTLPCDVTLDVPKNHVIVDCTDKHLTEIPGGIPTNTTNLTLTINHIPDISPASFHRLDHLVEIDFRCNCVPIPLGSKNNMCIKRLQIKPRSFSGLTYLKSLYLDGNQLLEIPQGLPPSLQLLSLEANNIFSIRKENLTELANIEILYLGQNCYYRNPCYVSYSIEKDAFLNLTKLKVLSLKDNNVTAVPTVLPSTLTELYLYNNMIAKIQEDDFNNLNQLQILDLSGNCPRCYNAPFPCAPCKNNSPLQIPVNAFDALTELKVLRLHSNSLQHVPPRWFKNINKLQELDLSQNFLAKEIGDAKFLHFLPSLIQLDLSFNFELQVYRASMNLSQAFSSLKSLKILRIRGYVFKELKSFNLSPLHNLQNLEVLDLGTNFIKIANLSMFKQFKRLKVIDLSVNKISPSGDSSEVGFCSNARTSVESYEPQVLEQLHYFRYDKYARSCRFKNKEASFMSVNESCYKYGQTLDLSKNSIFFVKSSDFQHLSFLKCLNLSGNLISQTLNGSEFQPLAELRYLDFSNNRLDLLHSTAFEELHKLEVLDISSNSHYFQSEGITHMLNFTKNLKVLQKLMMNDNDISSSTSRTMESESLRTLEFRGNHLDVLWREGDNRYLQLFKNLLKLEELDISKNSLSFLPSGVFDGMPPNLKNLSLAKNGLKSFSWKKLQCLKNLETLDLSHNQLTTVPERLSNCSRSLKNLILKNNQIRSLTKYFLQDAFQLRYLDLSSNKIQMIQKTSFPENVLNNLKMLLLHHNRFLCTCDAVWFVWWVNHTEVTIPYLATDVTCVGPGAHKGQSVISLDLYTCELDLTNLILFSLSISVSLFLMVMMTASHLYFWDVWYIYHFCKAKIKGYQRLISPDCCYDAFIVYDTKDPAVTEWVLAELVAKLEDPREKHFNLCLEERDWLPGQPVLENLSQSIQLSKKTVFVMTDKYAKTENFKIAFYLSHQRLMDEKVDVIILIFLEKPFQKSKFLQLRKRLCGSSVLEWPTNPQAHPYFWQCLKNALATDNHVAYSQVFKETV
Method in brief: as §1

[3] = biological target: T3, human TLR8 (Homo sapiens, UniProt Q9NR97); test: TLR8 inhibition reporter assay (HEK-Blue SEAP reporter, R848 stimulation); settings: HEK-Blue cells overexpressing human TLR8, SEAP reporter, R848 15.9 μM, 22 hour incubation
T3 construct: host or cells: HEK-Blue cells
T3 sequence (Q9NR97 27-1041): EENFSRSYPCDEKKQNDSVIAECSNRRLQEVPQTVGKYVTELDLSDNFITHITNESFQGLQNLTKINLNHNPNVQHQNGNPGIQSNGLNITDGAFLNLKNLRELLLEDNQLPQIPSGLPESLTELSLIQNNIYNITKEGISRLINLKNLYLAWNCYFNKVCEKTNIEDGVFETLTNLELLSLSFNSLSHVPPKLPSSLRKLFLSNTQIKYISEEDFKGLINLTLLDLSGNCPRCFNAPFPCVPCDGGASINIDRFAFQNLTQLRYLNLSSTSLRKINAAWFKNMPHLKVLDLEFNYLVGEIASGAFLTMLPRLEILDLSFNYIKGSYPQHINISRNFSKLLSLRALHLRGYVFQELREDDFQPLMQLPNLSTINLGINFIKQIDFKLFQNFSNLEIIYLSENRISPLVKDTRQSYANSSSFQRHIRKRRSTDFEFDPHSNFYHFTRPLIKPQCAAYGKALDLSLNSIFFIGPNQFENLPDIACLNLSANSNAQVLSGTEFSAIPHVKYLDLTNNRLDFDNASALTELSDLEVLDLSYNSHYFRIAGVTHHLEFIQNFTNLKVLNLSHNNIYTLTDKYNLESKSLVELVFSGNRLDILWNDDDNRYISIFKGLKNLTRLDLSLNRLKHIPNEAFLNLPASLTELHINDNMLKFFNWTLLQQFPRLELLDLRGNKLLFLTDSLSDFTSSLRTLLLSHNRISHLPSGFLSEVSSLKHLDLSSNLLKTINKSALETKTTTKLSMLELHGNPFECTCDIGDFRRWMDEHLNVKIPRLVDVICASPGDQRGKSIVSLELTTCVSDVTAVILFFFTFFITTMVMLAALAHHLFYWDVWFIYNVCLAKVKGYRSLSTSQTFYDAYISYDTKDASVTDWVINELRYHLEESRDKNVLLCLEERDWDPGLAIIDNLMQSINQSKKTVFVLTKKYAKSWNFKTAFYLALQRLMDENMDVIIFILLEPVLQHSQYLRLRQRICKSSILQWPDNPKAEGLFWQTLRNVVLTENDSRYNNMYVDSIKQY
Method in brief: as §1

SMILES	IC50 [1] [µM]	IC50 [2] [nM]	IC50 [3] [nM]
Cc1cc(-c2[nH]c3ccc(C4CCN(CC(=O)N(C)C)CC4)cc3c2C(C)C)cn(Cc2ccccc2)c1=O [Example 164, 2-(4-(2-(1-benzyl-5-methyl-6-oxo-1,6-dihydropyridin-3-yl)-3-isopropyl-1H-indol-5-yl)piperidin-1-yl)-N,N-dimethylacetamide]	2.56	7	42.4
COCCn1cc(-c2[nH]c3ccc(C4CCN(C5CCOCC5)CC4)cc3c2C(C)C)cc(C)c1=O [Example 261, 5-(3-isopropyl-5-(1-(tetrahydro-2H-pyran-4-yl)piperidin-4-yl)-1H-indol-2-yl)-1-(2-methoxyethyl)-3-methylpyridin-2(1H)-one]	3.36	8.8	7.1
CCCN1CCC(c2ccc3[nH]c(-c4cc(-c5ccncc5)c(=O)n(C)c4)c(C(C)C)c3c2)CC1 [Example 336, 5-(3-isopropyl-5-(1-propylpiperidin-4-yl)-1H-indol-2-yl)-1-methyl-[3,4′-bipyridin]-2(1H)-one]	0.553	10.2	1.2
CNC(=O)CN1CCC(c2ccc3[nH]c(-c4cc(OC)c(=O)n(C)c4C)c(C(C)C)c3c2)CC1 [Example 142, 2-(4-(3-isopropyl-2-(5-methoxy-1,2-dimethyl-6-oxo-1,6-dihydropyridin-3-yl)-1H-indol-5-yl)piperidin-1-yl)-N-methylacetamide]	7.65	205	95.4
COc1cc(-c2[nH]c3ccc(C4CCN(CC(=O)N(C)C)CC4)cc3c2C(C)C)c(C)n(C)c1=O [Example 143, 2-(4-(3-isopropyl-2-(5-methoxy-1,2-dimethyl-6-oxo-1,6-dihydropyridin-3-yl)-1H-indol-5-yl)piperidin-1-yl)-N,N-dimethylacetamide]	2.72	413	99.7
Cc1cc(-c2[nH]c3ccc(C4CCN(C(C)C)CC4)cc3c2C(C)C)cn(C)c1=O [Example 182, 5-(3-isopropyl-5-(1-isopropylpiperidin-4-yl)-1H-indol-2-yl)-1,3-dimethylpyridin-2(1H)-one]	5.55	5.9	7.3
Cc1cc(-c2[nH]c3ccc(C4CCN(C5CCOC5)CC4)cc3c2C(C)C)nn(C)c1=O (stereo not drawn) [Example 193, 6-(3-isopropyl-5-(1-(tetrahydrofuran-3-yl)piperidin-4-yl)-1H-indol-2-yl)-2,4-dimethylpyridazin-3(2H)-one]	8.92	12.6	11.7
Cc1nc(-c2[nH]c3ccc(C4CCN(C5COC5)CC4)cc3c2C(C)C)cn(C)c1=O [Example 186, 5-(3-isopropyl-5-(1-(oxetan-3-yl)piperidin-4-yl)-1H-indol-2-yl)-1,3-dimethylpyrazin-2(1H)-one]	6.73	112	75.5
Cc1cc(-c2[nH]c3ccc(C4CCN(C(=O)[C@H]5NCC[C@@H]5O)CC4)cc3c2C(C)C)cn(C)c1=O [Example 291, 5-(5-(1-((2S,3S)-3-hydroxypyrrolidine-2-carbonyl)piperidin-4-yl)-3-isopropyl-1H-indol-2-yl)-1,3-dimethylpyridin-2(1H)-one]	1.42	12.3	11.2
Cc1cc(-c2[nH]c3ccc(C4CCN(C5CCC(C(C)(C)O)CC5)CC4)cc3c2C(C)C)cn(C)c1=O (stereo not drawn) [Example 268, 5-(5-(1-(4-(2-hydroxypropan-2-yl)cyclohexyl)piperidin-4-yl)-3-isopropyl-1H-indol-2-yl)-1,3-dimethylpyridin-2(1H)-one]	2.63	2.4	6.6
Cc1c(-c2[nH]c3ccc(C4CCN(CC(=O)N(C)C)CC4)cc3c2C(C)C)nn(C)c(=O)c1C [Example 130, 2-(4-(3-isopropyl-2-(1,4,5-trimethyl-6-oxo-1,6-dihydropyridazin-3-yl)-1H-indol-5-yl)piperidin-1-yl)-N,N-dimethylacetamide]	8.51	290	25.9
C=Cc1cc(-c2[nH]c3ccc(C4CCN(CC(=O)N(C)C)CC4)cc3c2C(C)C)cn(C)c1=O [Example 352, 2-(4-(3-isopropyl-2-(1-methyl-6-oxo-5-vinyl-1,6-dihydropyridin-3-yl)-1H-indol-5-yl)piperidin-1-yl)-N,N-dimethylacetamide]	2.42	21.5	31.5
Cc1c(-c2[nH]c3ccc(C4CCN(CC(=O)N(C)C)CC4)cc3c2C(C)C)cn(C)c(=O)c1Cl [Example 152, 2-(4-(2-(5-chloro-1,4-dimethyl-6-oxo-1,6-dihydropyridin-3-yl)-3-isopropyl-1H-indol-5-yl)piperidin-1-yl)-N,N-dimethylacetamide]	16.6	1.4	4.6
